Assay results taken from PMC11508334, “In Vitro Evaluation of New 5-Nitroindazolin-3-one Derivatives as Promising Agents against Trypanosoma cruzi” (International Journal of Molecular Sciences, 2024).

What was measured:
[1] = Cyclic voltammetry, reduction of nitro group; assay type: physicochemical; conditions: for −EpaIII: anodic peak potential of couple IIIc/IIIa; for −EpaIII / −EpcIII / −E1/2: given with inverted sign, vs. Ag/AgCl electrode in DMSO; for −EpcIII: cathodic peak potential of couple IIIc/IIIa; for Ipa/Ipc: current ratio RNO2/RNO2•−, couple IIIc/IIIa, DMSO; for −E1/2: half-wave potential of couple IIIc/IIIa
Description: Cyclic Voltammetry (CV) was carried out using a Metrohm Autolab instrument model PGSTAT204, using dimethyl sulfoxide (DMSO) as the solvent (1 mM solutions), tetrabutylammonium perchlorate (0.1 M TBAP) as the supporting electrolyte, a hanging drop mercury electrode (HDME) as the working electrode, Ag/AgCl (3M KCl) as the reference electrode, and a graphite rod as the counter electrode. All measurements were performed after bubbling with nitrogen (N2) for 10 min.
Using Nicholson’s procedure, the Ipa/Ipc values (RNO2/RNO2^•−) were measured from each cyclic voltammogram with a scan rate between 0.1 and 2.5 V/s.

[2] = test system: RAW 264.7 cells; assay: Cytotoxicity MTT assay on RAW 264.7 cells; assay type: cell-based; conditions: Mus musculus, RAW264.7, in vitro cytotoxicity, murine RAW 264.7 macrophages
Description: The compounds under study, dissolved in dimethylsulfoxide (DMSO), were added to the culture media at 10–200 μM. RAW 264.7 cells were cultured in 96-well plates (5 × 10^4 cells per well), and 100 μL of 0.5 mg/mL MTT was added to each well. The DMSO final concentration was less than 0.1% v/v. After incubation for 4 h at 37 °C, the generated water-insoluble formazan dye was dissolved by adding 100 μL of 10% w/v sodium dodecyl sulfate (SDS) in 0.01 M HCl. The plates were further incubated overnight at 37 °C; […] 0.5% of Triton X-100 was added as a positive control. The plates were further incubated overnight at 37 °C, and the optical density of the wells was determined using a microplate reader (Asys Expert Plus©, Asys Hitachi, Vienna, Austria) at 570 nm. Under these conditions, the optical density is directly proportional to the viable cell number in each well. All experiments were performed at least thrice and data were reported as means and their standard deviations from triplicate cultures. Results are reported as IC50 regarding the control (uninfected cells in culture medium)

[3] = test system: T. cruzi epimastigote stage (Dm28c strain); assay: Epimastigotes viability study (MTT); assay type: cell-based, Trypanosoma cruzi; conditions: for SI Epimastigote: Selectivity Index IC50 macrophages RAW 264.7/IC50 epimastigotes Dm28c; for IC50: Trypanosoma cruzi, T. cruzi Dm28c epimastigotes, 24 h, MTT
Description: The trypanocidal activity was evaluated against the T. cruzi epimastigote stage (Dm28c strain). It was measured through the MTT assay using 0.22 mg/mL phenazine methosulfate (as an electron carrier). T. cruzi epimastigote from the author's collection (Programa de Farmacología Molecular y Clínica, Facultad de Medicina, Universidad de Chile, Santiago, Chile) were grown at 28 °C in liver infusion tryptase (LIT) medium, as reported earlier, but replacing blood with 4 μM hemin. […] fetal bovine serum (FBS) was added to a final concentration of 10% v/v. In this colorimetric assay for testing the trypanocidal activity, the compounds were dissolved in DMSO. They were added to 3 × 10^6 parasites/mL at 100 μM final concentrations in RPMI 1640 culture medium without phenol red for 24 h at 28 °C. The final concentration of DMSO was less than 0.1% v/v. […] The MTT assay, which was described previously, determined the viability of the epimastigotes.

[4] = test system: Dm28c trypomastigotes; assay: Trypomastigote viability study (MTT); assay type: cell-based, Trypanosoma cruzi; conditions: for SI Trypomastigote: Selectivity Index IC50 macrophages RAW 264.7/IC50 trypomastigotes Dm28c; for IC50: Trypanosoma cruzi, T. cruzi Dm28c trypomastigotes, 24 h, MTT
Description: Vero cells (ATCC CCL-81) were infected with Dm28c trypomastigotes at a 1:3 (cell: parasite) ratio. T. cruzi trypomastigotes were initially obtained from primary cultures of peritoneal macrophage from chagasic mice. […] Vero cell cultures were then infected with trypomastigotes and incubated at 37 °C in humidified air and 5% CO2 for 5–7 days. After that time, the culture medium was collected and centrifuged at 500× g for 5 min. The trypomastigote-containing pellet was re-suspended in RPMI 1640 supplemented with inactivated FBS and penicillin–streptomycin at a final 1 × 10^7 parasites/mL density. Trypomastigote viability assays were performed using the MTT reduction method as described previously. Then, 1 × 10^7 parasites/mL was incubated in RPMI 1640 with inactivated FBS at 37 °C for 24 h with or without the studied compounds.

SMILES	−EpaIII [1] [V]	−EpcIII [1] [V]	Ipa/Ipc [1]	−E1/2 [1] [V]	IC50 [2] [µM]	SI Epimastigote [3]	IC50 [3] [µM]	SI Trypomastigote [4]	IC50 [4] [µM]	melting point [°C]
O=[N+]([O-])c1ccc2c(c1)c(O)nn2CCCCCCCl [Compound 21]	1.27	1.37	0.56	1.32	> 200	>2.4	84.3 ± 2.1	>2.1	91.2 ± 2.2	
Cn1c2ccc([N+](=O)[O-])cc2c(=O)n1Cc1ccccc1Cl [Compound 9, 2-(2-Chlorobenzyl)-1-methyl-5-nitro-1,2-dihydro-3H-indazol-3-one]	1.02	1.10	0.96	1.06	176 ± 2.3	4.0	43.7 ± 2	2.8	61.6 ± 1.4	179 to 181
O=C(Cn1ccnc1[N+](=O)[O-])NCc1ccccc1 [BNZ, benznidazole, reference compound]	0.93	1.08	0.98	1.00						
COc1nn(C)c2ccc([N+](=O)[O-])cc12 [Compound 23]	1.25	1.37	0.78	1.31	> 200		> 100		> 100	
Cn1c2ccc([N+](=O)[O-])cc2c(=O)n1Cc1ccccc1Br [Compound 12, 2-(2-Bromobenzyl)-1-methyl-5-nitro-1,2-dihydro-3H-indazol-3-one]	0.96	1.17	1.00	1.07	72.4 ± 1.6	2.4	30.3 ± 1.1	1.4	52.5 ± 1.3	182 to 184
Cn1c2ccc([N+](=O)[O-])cc2c(=O)n1Cc1ccccc1C(F)(F)F [Compound 17, 1-Methyl-5-nitro-2-[2-(trifluoromethyl)benzyl]-1,2-dihydro-3H-indazol-3-one]	0.82	1.37	0.96	1.10	166 ± 2.3	4.7	35.4 ± 1.1	1.9	89.3 ± 1	211 to 213
Cn1c2ccc([N+](=O)[O-])cc2c(=O)n1Cc1cccc(F)c1 [Compound 7, 2-(3-Fluorobenzyl)-1-methyl-5-nitro-1,2-dihydro-3H-indazol-3-one]	0.98	1.20	1.00	1.09	95.1 ± 1.1	3.2	29.5 ± 1.5	2.3	41.2 ± 0.8	125 to 127
Cn1c2ccc([N+](=O)[O-])cc2c(=O)n1Cc1ccc(Br)cc1 [Compound 14, 2-(4-Bromobenzyl)-1-methyl-5-nitro-1,2-dihydro-3H-indazol-3-one]	0.99	1.20	0.94	1.10	172 ± 2.3	2.1	83.9 ± 1.9	3.5	48.6 ± 1.2	144 to 146
O=[N+]([O-])c1ccc2c(c1)c(O)nn2CCCCCO [Compound 20]	1.28	1.38	0.67	1.33	> 200		> 100		> 100	
CC(c1ccccc1)n1c(=O)c2cc([N+](=O)[O-])ccc2n1C (stereo not drawn) [Compound 18, 1-Methyl-5-nitro-2-(1-phenylethyl)-1,2-dihydro-3H-indazol-3-one]	1.02	1.12	0.91	1.07	> 200	>2.9	68.7 ± 1.7		> 100	155 to 157
Cn1nc(O)c2cc([N+](=O)[O-])ccc21 [Compound 19, 1-methyl-5-nitroindazol-3-ol]	1.28	1.35	0.65	1.32	> 200		> 100		> 100	
CC1CS(=O)(=O)CCN1/N=C/c1ccc([N+](=O)[O-])o1 (stereo not drawn) [NFX, nifurtimox, reference compound]	0.85	0.91	1.01	0.88	263.4 ± 2.2	15.1	17.4 ± 1.3	12.3	21.5 ± 1.4	
O=c1c2cc([N+](=O)[O-])ccc2[nH]n1-c1ccccc1 [Compound 4]	1.27	1.37	0.63	1.32	97.5 ± 1.2	2.1	46.9 ± 3.4	1.5	63.4 ± 1.4	
Cn1c2ccc([N+](=O)[O-])cc2c(=O)n1Cc1ccccc1F [Compound 6]	0.94	1.22	0.99	1.08	83.9 ± 0.9	2.6	32.9 ± 0.7	1.5	56.4 ± 1.5	
